Results published in patent US20030139469A1, “Use of inhibitors of soluble epoxide hydrolase to inhibit vascular smooth muscle cell proliferation” (THE REGENTS OF THE UNIVERSITY OF CALIFORNIA, priority 2002, published 2003).
Entries after “also recorded” stand apart in the source; their conditions may differ.

How the values were obtained:
[1] = system: porcine aortic VSM cells; details: 14,15-EET 2 μM, chalcone oxide with PDGF and exogenous EETs; cited from earlier work
[2] = system: spontaneously hypertensive rats; details: injection; cited from earlier work
[3] = system: soluble epoxide hydrolase (sEH); details: cited from earlier work
[4] = metabolic stability; assay type: in vitro ADME
[5] = system: soluble epoxide hydrolase (sEH); experiment: inhibition of soluble epoxide hydrolase; assay type: biochemical, human
Text: Epoxide hydrolases (“EH;” EC 3.3.2.3) are enzymes in the alpha beta hydrolase fold family that add water to 3 membered cyclic ethers termed epoxides. Soluble epoxide hydrolase (sEH) is an enzyme which in endothelial and smooth muscle cells converts EETs to dihydroxy derivatives called dihydroxyeicosatrienoic acids (DHETs). The cloning and sequence of the murine sEH is set forth in Grant et al., J. Biol. Chem. 268(23):17628-17633 (1993). The cloning, sequence, and accession numbers of the human sEH sequence are set forth in Beetham et al., Arch. Biochem. Biophys. 305(1): 197-201 (1993). The evolution and nomenclature of the gene is discussed in Beetham et al., DNA Cell Biol. 14(1):61-71 (1995). Unless otherwise specified, as used herein, the terms “soluble epoxide hydrolase” and “sEH” refer to human sEH. Derivatives of urea are transition state mimetics that form a preferred group of sEH inhibitors. […] Any particular urea derivative or other compound can be easily tested for its ability to inhibit sEH by standard assays, such as the one used in the Examples herein. […] The enzyme also can be detected based on the binding of specific ligands to the catalytic site which either immobilize the enzyme or label it with a probe such as luciferase, green fluorescent protein or other reagent. […]

## CCCCCC1OC1C/C=C\C/C=C\C/C=C\CCCC(=O)O (stereo not drawn) [14,15-EET]
[1]
  PDGF-mediated DNA synthesis / mitogenesis: increase PDGF-mediated DNA synthesis

## O=C(NC1CCCCC1)NC1CCCCC1 [DCU, N,N′-dicyclohexylurea]
[2]
  systemic blood pressure: lowering of blood pressure; also recorded: lower systemic blood pressure

## O=C(c1ccccc1)C1OC1c1ccc(-c2ccccc2)cc1 (stereo not drawn) [4-phenylchalcone oxide, reference compound]
[3]
  in vitro inhibition of epoxide hydrolases: potent
[1]
  PDGF-mediated DNA synthesis / mitogenesis: additive increase in mitogenesis

## CCCCCCCCCCCCNC(=O)NC12CC3CC(CC(C3)C1)C2 [ADU, N-adamantyl-N′-dodecyl urea]
[4]
  metabolic stability: metabolically stable
[5]
  activity as an inhibitor of sEH: particularly high activity
